From PubChem BioAssay (NCI)
“And” between values parts separate entries of the source, which are not always exact repeats. Equal values may be shown once.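 All cell lines were grown in 96-well plates and treated with compound for 48 hours. GI50: concentration for 50% inhibition of growth. TGI: concentration producing complete growth inhibition.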

How the values were obtained:
Assay in all cases: NCI anticancer screen, dose series, 48 h
[1] = test system: SK-MEL-2 melanoma
[2] = test system: MCF7 breast
[3] = test system: CCRF-CEM leukemia
[4] = test system: HL-60(TB) leukemia
[5] = test system: CAKI-1 renal
[6] = test system: NCI-H460 lung
[7] = test system: SF-539 CNS
[8] = test system: SK-OV-3 ovarian
[9] = test system: 786-0 renal
[10] = test system: TK-10 renal

| SMILES | GI50 [1] | TGI [1] | GI50 [2] [µM] | TGI [2] | GI50 [3] [µM] | TGI [3] | GI50 [4] [µM] | TGI [4] [µM] | GI50 [5] [µM] | TGI [5] | GI50 [6] | TGI [6] | GI50 [7] [µM] | TGI [7] | GI50 [8] [µM] | TGI [8] | GI50 [9] [µM] | TGI [9] | GI50 [10] [µM] | TGI [10] |
| --- | --- | --- | --- | --- | --- | --- | --- | --- | --- | --- | --- | --- | --- | --- | --- | --- | --- | --- | --- | --- |
| COc1ncc(-c2nc3c(n2C(C)C)[C@H](c2ccc(Cl)cc2)N(c2cc(Cl)cn(C)c2=O)C3=O)c(OC)n1 | 46.3 µM | > 100 µM | 17.3 | > 100 µM | 30.9 | > 100 µM | 31.2 | 99.7 | 26.3 | > 100 µM | 22.8 µM | > 100 µM | 64.5 | > 100 µM | 40.4 | > 100 µM | 67.5 | > 100 µM | 36.8 | > 100 µM |
| COc1cc2c3c(n(CCN)c(=O)c2cc1OC)-c1cc2c(cc1C3=O)OCO2 | 3.22 µM | 10.5 µM | 0.0832 | 2.98 µM | < 0.01 |  |  | > 100 | < 0.0145 | 0.786 µM | < 0.01 µM | 3.24 µM | 0.766 | 2.74 µM | 2.57 | > 100 µM | 0.14 | 0.502 µM | 1.79 | 3.63 µM |
| COc1cc(/C=C/C(=O)c2cc(F)c(Cl)cc2Cl)cc(OC)c1OC | 15.8 µM | 58.7 µM | 32.3 | > 100 µM | 23.8 | 76.4 µM | 16.6 | 71.9 | 27.6 | > 100 µM | 48.3 µM | > 100 µM | 28.1 | > 100 µM | > 100 | > 100 µM | 22.9 | 97.2 µM | 31 | > 100 µM |
| CC[N+](CC)=c1ccc2nc3c(cc(NCc4ccccc4)c4ccccc43)oc-2c1 | 0.737 µM | 2.25 µM | 0.165 | 0.474 µM | 0.476 | 7.15 µM | 0.209 | 1.11 | 0.231 | 1.54 µM | 0.201 µM | 0.435 µM | 4.19 | 21.2 µM | 1.12 | 2.32 µM | 0.497 | 1.85 µM | 0.671 | 2.29 µM |
| NC(=O)c1[nH]nc(C2OC(CO)C(O)C2O)c1O (stereo not given) |  | 843 µM |  | 1060 µM |  | 2360 µM |  | 63.7 |  | 158 µM |  | 415 µM |  | 505 µM |  | 460 µM |  | > 2870 µM |  | 2320 µM |
| COc1cc2cc(Oc3ccc(NC(=O)Nc4ccccc4)cc3)c(C)nc2cc1OCCN1CCCCC1 | 5.96 µM | 12.1 µM | 5.14 | 10 µM | 1.05 | 4.29 µM | 6.43 | 13.3 | 4.94 | 10 µM | 6.05 µM | 11.2 µM | 5.46 | 10.3 µM | 7.8 | 16.6 µM | 5.58 | 11.1 µM | 8.3 | 17.3 µM |
| O=C1C=CC(=O)C1(Br)Br |  | 31.4 µM |  | 34.6 µM |  | 26.6 µM |  | 49 |  | 11.4 µM |  | 41.6 µM |  | 30.4 µM |  | 43.2 µM |  | 23.8 µM |  | 10.4 µM |
| CN(C)CCNC(=O)c1cccc2cc3ccccc3nc12 | 2.27 µM | 4.34 µM | 0.612 | 11.4 µM | 1.37 | > 32.1 µM | 1.03 | 5.3 | 0.62 | 3.14 µM | 0.426 µM | 1.98 µM | 1.78 | 8.21 µM | 1.03 | 11 µM | 1.52 | 8.64 µM | 1.23 | 4.08 µM |
| CS(=O)(=O)N1CCN(Cc2cc3nc(-c4cccc5[nH]ncc45)nc(N4CCOCC4)c3s2)CC1 (tested in a mixture with another compound) | 0.753 µM | 6.67 µM | 0.0509 |  | 0.272 |  | 0.0575 | 34 | 0.0769 | 0.462 µM | 0.0796 µM |  | 0.0319 | 0.108 µM | 0.0559 | 0.328 µM | 0.037 | 0.148 µM | 0.129 |  |
| O=C1c2cccnc2-c2nc(/C=C/c3ccccc3)cc3c2c1nc1ccccc13 | 2.14 µM | 4.99 µM | 0.899 | 5.01 µM | 3.06 | > 100 µM | 1.79 | 7.97 | 3.05 | 10.3 µM | 0.354 µM | 1.27 µM | 3.02 | 7.77 µM | 7.1 | 17 µM | 2.26 | 6.48 µM | 19.1 | 43.2 µM |
| CC(CN)[C@@H]1CC[C@]2(CO)CC[C@]3(C)[C@H](CC[C@@H]4[C@@]5(C)CCC(NCCO)C(C)(C)[C@@H]5CC[C@]43C)[C@@H]12 (stereo not given in full) | 1.8 µM | 3.42 µM | 1.78 | 3.62 µM | 1.99 | 5 µM | 2.65 | 7.47 | 4.12 | 16.6 µM | 1.79 µM | 3.43 µM | 1.61 | 3.02 µM | 12.5 | 25.2 µM | 1.55 | 3 µM | 1.81 | 3.88 µM |
| Nc1nc2ccc([C@@H]3Nc4ccc5[nH]ncc5c4[C@H]4[C@H]5CCC(C5)[C@H]43)cc2s1 | 1.82 µM | 6.79 µM | 0.412 | 1.73 µM | 0.507 | 19 µM | 0.345 | 1.37 | 0.791 | 3.34 µM | 0.81 µM | 2.32 µM | 0.812 | 2.88 µM | 1.73 | 3.63 µM | 1.4 | 10 µM | 2.73 | 8.98 µM |
| COC(=O)c1ccc(=O)c2nc3/c(=C/O)c(O)cc(=O)c3[nH]c12 | 2.27 µM | 15 µM and 16.7 µM | 0.652 | 17.5 µM and 22.8 µM | 0.397 | > 100 µM and 17.2 µM | 0.601 | 19.3 | 0.581 | 12.8 µM and 12.6 µM | 0.357 µM | 23.8 µM and 19.7 µM | 1.21 | 15.6 µM and 14.5 µM | 2.62 | 16.4 µM and 20.8 µM | 1.52 | 23.8 µM and 17.9 µM | 1.3 | 21.1 µM and 17.5 µM |
| Cn1ccc(=Nc2ccc(NC(=O)c3ccc(N=c4ccn(C)c5ccc([N+](=O)[O-])cc45)cc3)cc2)cc1 | 79.1 µM | > 100 µM | 2.36 | > 100 µM | > 100 | > 100 µM | 5.34 | > 100 | > 100 | > 100 µM | 22.6 µM | > 100 µM | 6.21 | 73.2 µM | > 100 | > 100 µM | 56.1 | > 100 µM | > 100 | > 100 µM |
| O=c1cccc(C#Cc2ccccc2)o1 | 4.71 µM | > 33.9 µM | 4.37 | > 100 µM |  | > 44 µM | 0.71 | 8.17 | 5.05 | 15.3 µM | 3.91 µM | > 100 µM | 3.72 | 27.6 µM | 16.2 | > 44.8 µM | 2.2 | 15 µM | 6.06 | 22.7 µM |
| COc1cccc(/C=C/C(=O)c2ccc(Cl)cc2Cl)c1OC | 4.58 µM | 17.4 µM | 4.52 | 32 µM | 2.77 | 26.9 µM | 2.4 | 5.85 | 12.6 | 25.1 µM | 8.37 µM | > 100 µM | 14.1 | 29 µM | 15.4 | 28.7 µM | 10.3 | 21.9 µM | 13.5 | 27 µM |
| COc1ccc(-c2cnc(-c3ccc(F)cc3)[nH]2)cc1 | 18.8 µM | 45 µM | 1.95 | 6.93 µM | 18.1 | > 89.4 µM | 2.03 | 23.4 | 1.82 | 5.57 µM | 8.37 µM | 29.6 µM | 9.46 | 29.6 µM | 16.5 | > 66.4 µM | 6.14 | 12.3 µM | 2.58 | 8.81 µM |
| O=C(Oc1ccc([N+](=O)[O-])cc1)N1CCN(Cc2cccc(Oc3ccccc3)c2)CC1 | > 67.1 µM | > 100 µM | 37.1 | > 100 µM | 40.5 | > 100 µM | 24.2 | > 100 | > 73.6 | > 100 µM | 99.3 µM | > 100 µM | > 100 | > 100 µM | > 100 | > 100 µM | > 100 | > 100 µM | > 75.9 | > 100 µM |
| COc1cc(-c2oc3c(OC)c(OC)cc(O)c3c(=O)c2OC)ccc1O | 2.52 µM and 6.91 µM | > 100 µM and 32.7 µM |  | > 50 µM |  | > 100 µM and 21.4 µM |  | 7.58 |  | > 50 µM | 4 µM and 8.51 µM | > 100 µM |  | > 100 µM and 49.2 µM |  | 14.3 µM |  | > 100 µM |  | 22.8 µM and 40.2 µM |
| COc1cc(NN=C(c2ccc(O)cc2)c2ccc(O)cc2)c([N+](=O)[O-])cc1[N+](=O)[O-] | 14.2 µM | 30.5 µM | 5.71 | 21.9 µM | 1.37 | > 100 µM | 22 | > 100 | 13.8 | 26.7 µM | 3.76 µM | 21.2 µM | 13 | 27.7 µM | 16.6 | 30.2 µM | 11.7 | 24.8 µM | 4.69 | 19.9 µM |
| COc1ccc2cc(C(=O)/C=C/c3cccc(Cl)c3Cl)ccc2c1 | > 50.9 µM | 98.3 µM | 1.28 | > 100 µM | 52.6 | > 100 µM | 24.2 | > 100 | 5.6 | 80.6 µM | 10.1 µM | > 100 µM | 2.68 | 12 µM | 24.7 | > 62.4 µM | 6.08 | > 41.5 µM | 18.6 | > 86.3 µM |
| CCOC(=O)/C=C1\SC(=Nc2ccc(C#N)cc2)N(CCN2C(=O)/C(=C/C(=O)OCC)SC2=Nc2ccc(C#N)cc2)C1=O | 12.1 µM | 28.8 µM | 0.353 | 17.7 µM | 0.613 | 16.9 µM | 2.66 | 25.6 | 3.57 | 14.9 µM | 1.81 µM | 7.35 µM | 3.53 | 12.8 µM | 15.3 | 41.7 µM | 2.08 | 6.33 µM | 14.8 | 36.6 µM |
